# Measurements published in PMC10106456 (Communications Biology, 2023).
# Values joined by “and” are separate entries in the source; they are usually repeats but may differ in a detail not shown here. Identical values can stand only once. Like-named read-outs stand apart in the source and are kept apart here.
# Key:
# [1] = tested on: E. coli expressing Tet(X7); assay: Checkerboard whole cell inhibition assay (tetracycline + anhydrotetracycline); type: cell-based; conditions: pZE24-tetX7, panel concentrations in μg/mL per Supp. Data 3
# Experimental: (§1) For high expression, 1 mM IPTG fully relieves repression by LacI[44] thus only IPTG was used in whole-cell tests. Chemically-competent E. coli DH5αZ1 (Expressys) was transformed with these pZE24 constructs by heat shock. Minimum inhibitory concentrations (MICs) were measured as per Clinical and Laboratory Standards Institute (CLSI) guidelines. Substrates and inhibitors were dissolved in DMSO (20 mg/mL) then diluted to working concentrations in cation-adjusted Mueller-Hinton II broth supplemented with 50 μg/mL kanamycin (Supplementary Data 2). Antibiotic susceptibility testing panels were prepared in 96-well flat-bottom microplates (Corning) by two-fold serial dilution of the antibiotic of interest (Supplementary Data 3). […] Liquid cultures of each strain were grown to exponential phase then diluted to a standard concentration (OD600 = 0.0015, which is equivalent to double ~5 × 10^5 CFU/mL) and inoculated into each panel at a 1:1 ratio. […] Each strain-antibiotic/inhibitor combination was tested in triplicate, along with no-drug and no-cell controls. Inoculated panels were sealed with Breathe-Easy membranes (Sigma-Aldrich) and incubated at 37 °C for 20 h. MICs were scored by absorbance measurements at 600 nm (OD600) using the Synergy H1 microplate reader (Biotek Instruments, Inc).
# [2] = tested on: E. coli DH5αZ1 pZE24-empty; assay: as above; type: cell-based
# Experimental: as §1
# Tet(X6) [3] = target: T1, Tet(X6) (Proteus genomosp. 6, UniProt A0A6I7DAX3); assay: Substrate degradation by LC-MS (extracted ion counts); type: biochemical, Proteus genomospecies; conditions: Tet(X6) reaction of aTC
# Experimental: (§2) All in vitro kinetic assays were prepared open to air in non-degassed buffer solutions at room temperature. […] In vitro reactions were monitored by optical absorbance spectroscopy on an Agilent Cary 50 UV-visible spectrophotometer using polystyrene cuvettes. Reaction progress was monitored by optical absorbance spectroscopy (280−550 nm, 1 nm and 5 min intervals) over 2 h. […] The quenched samples were centrifuged (5000 rpm, 4 °C) for 5 min, and 600 μL of the resulting supernatant was mixed with an Fmoc-Ala internal standard (3.12 μM final concentration) and analyzed by LC-MS in positive ion mode (single trial). LC-MS was acquired using an Agilent 6130 single quadrupole instrument (ESI + ) with G1313 autosampler, G1315 diode array detector, and 1200 series solvent module with separation on a Phenomenex Gemini C18 column, 50 × 2 mm (5 um) fit with a guard column cassette. LCMS solvents were 0.1% formic acid in H2O (A) and 0.1% formic acid in acetonitrile (B). […] LCMS data were processed using ChemStation software version B.04.02 SP1. Extracted ion chromatograms (EICs) for the expected [M + H]^+ molecular ions corresponding to substrate and mono-hydroxylated product were normalized to the [M + H]^+ counts for an Fmoc-Ala internal standard.
# Tet(X6) [4] = target: T1, Tet(X6); assay: Apparent Tet(X6) inhibitor IC50 (optical absorbance assay); type: biochemical, Proteus genomospecies; conditions: for IC50: Tet(X6); for Slope (velocity of substrate degradation in presence of aTC): trials 1-3
# Experimental: All experiments were prepared open to air in non-degassed buffer solutions at room temperature. […] Initial enzyme velocities were determined by linear regression using Agilent Cary WinUV Software over the linear range of the reaction (typically between 0 to 1 min). The velocities were plotted against the logarithm of inhibitor concentration, and apparent IC50 values were determined using nonlinear regression analysis in GraphPad Prism v6. Each set of experiments included a no-TDase control reaction which was used as the full enzyme inhibition velocity and assigned to an inhibitor concentration of 1 × 10^15, as well as a no-inhibitor control which was assigned an inhibitor concentration of 1 × 10^–15.
# Tet(X6) [5] = target: T1, Tet(X6); assay: Substrate degradation by scanning optical absorbance spectroscopy; type: biochemical, Proteus genomospecies; conditions: in the presence of Tet(X6), NADPH, and O2; 20 μM substrate, 2 h
# Experimental: as §2
# Tet(X6) [6] = target: T1, Tet(X6); conditions: for Slope (initial velocity of substrate degradation): trials 1-3, absorbance 400 nm (440 nm for aTC)
# Experimental: All experiments were prepared open to air in non-degassed buffer solutions at room temperature. […] Initial enzyme velocities were determined by linear regression using Agilent Cary WinUV Software over the linear range of the reaction (typically between 0 to 1 min), plotted against the concentration of the substrate, and fitted to the Michaelis–Menten or allosteric sigmoidal nonlinear regression equations using GraphPad Prism 6.
# [7] = tested on: E. coli expressing Tet(X6); type: cell-based; conditions: pZE24-tetX6, panel concentrations in μg/mL per Supp. Data 3
# Experimental: as §1
# [8] = tested on: E. coli DH5αZ1 + pZE24 (empty); assay: Microbroth dilution antibiotic susceptibility test (MIC); type: cell-based; conditions: Escherichia coli, 20 h, drug alone
# Experimental: as §1
# [9] = tested on: E. coli DH5αZ1 + pZE24-tet(X6); assay: as above; type: cell-based; conditions: Escherichia coli
# Experimental: as §1
# [10] = tested on: E. coli DH5αZ1 + pZE24-tet(X7); assay: as above; type: cell-based; conditions: Escherichia coli, 20 h
# Experimental: as §1
# T1 sequence (A0A6I7DAX3 entry or part of it): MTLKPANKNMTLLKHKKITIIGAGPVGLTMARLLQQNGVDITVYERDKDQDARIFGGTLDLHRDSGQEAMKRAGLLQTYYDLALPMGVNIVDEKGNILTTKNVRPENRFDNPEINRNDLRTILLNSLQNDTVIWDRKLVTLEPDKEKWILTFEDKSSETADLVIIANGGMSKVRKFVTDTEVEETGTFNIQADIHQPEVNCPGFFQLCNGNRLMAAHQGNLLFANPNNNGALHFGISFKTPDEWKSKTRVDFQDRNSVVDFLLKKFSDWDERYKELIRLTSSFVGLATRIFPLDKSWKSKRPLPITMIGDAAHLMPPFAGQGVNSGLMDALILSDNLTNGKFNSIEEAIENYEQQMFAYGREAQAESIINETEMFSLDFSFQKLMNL
compound,measurement,setting,value
"Cc1c2c(c(O)c3c(O)cccc13)C(=O)[C@]1(O)C(=O)C(C(N)=O)=C(O)[C@@H](N(C)C)[C@@H]1C2 [aTC, anhydrotetracycline]",ATC concentration inhibiting growth at fixed TET (Fig3a source data),[1]; TET 0,8
same,ATC concentration inhibiting growth at fixed TET (Fig3a source data),[1]; TET 1,8
same,ATC concentration inhibiting growth at fixed TET (Fig3a source data),[1]; TET 2,4
same,ATC concentration inhibiting growth at fixed TET (Fig3a source data),[1]; TET 4,4
same,ATC concentration inhibiting growth at fixed TET (Fig3a source data),[1]; TET 8,2
same,ATC concentration inhibiting growth at fixed TET (Fig3a source data),[1]; TET 16,0.5
same,ATC concentration inhibiting growth at fixed TET (Fig3a source data),[1]; TET 32,0
same,ATC concentration inhibiting growth at fixed TET (Fig3a source data),"[2]; TET 0, panel concentrations in μg/mL per Supp. Data 3",4
same,ATC concentration inhibiting growth at fixed TET (Fig3a source data),"[2]; TET 1, panel concentrations in μg/mL per Supp. Data 3",0
same,Percent Ion Count (relative %),Tet(X6) [3]; time 0 min,100%
same,Percent Ion Count (relative %),Tet(X6) [3]; time 5 min,95.7447%
same,Percent Ion Count (relative %),Tet(X6) [3]; time 30 min,80%
same,Percent Ion Count (relative %),Tet(X6) [3]; time 60 min,64.9123%
same,Percent Ion Count (relative %),Tet(X6) [3]; time 90 min,74.5098%
same,Percent Ion Count (relative %),Tet(X6) [3]; time 120 min,75.7895%
same,IC50,"Tet(X6) [4]; IC50, aTC inhibition of ERA degradation, substrate ERA",9 ± 1 µM
same,IC50,"Tet(X6) [4]; IC50, aTC inhibition of OMA degradation, substrate OMA",12 ± 4 µM
same,IC50,"Tet(X6) [4]; IC50, aTC inhibition of TIG degradation, substrate TIG",2.2 ± 0.2 µM
same,Slope (velocity of substrate degradation in presence of aTC),"Tet(X6) [4]; substrate Erav, log[aTC] μM 0.81",0.0443 and 0.0431 and 0.045
same,Slope (velocity of substrate degradation in presence of aTC),"Tet(X6) [4]; substrate Erav, log[aTC] μM 1.41",0.0266 and 0.0254 and 0.0225
same,Slope (velocity of substrate degradation in presence of aTC),"Tet(X6) [4]; substrate Erav, log[aTC] μM 1.72",0.0176 and 0.0178 and 0.0199
same,Slope (velocity of substrate degradation in presence of aTC),"Tet(X6) [4]; substrate Erav, log[aTC] μM 2.07",0.0149 and 0.0154 and 0.0125
same,Slope (velocity of substrate degradation in presence of aTC),"Tet(X6) [4]; substrate Erav, log[aTC] μM 2.16",0.007 and 0.0075 and 0.0083
same,Slope (velocity of substrate degradation in presence of aTC),"Tet(X6) [4]; substrate Omad, log[aTC] μM 0.81",0.0132 and 0.0149 and 0.0223
same,Slope (velocity of substrate degradation in presence of aTC),"Tet(X6) [4]; substrate Omad, log[aTC] μM 1.41",0.0111 and 0.0097 and 0.0109
same,Slope (velocity of substrate degradation in presence of aTC),"Tet(X6) [4]; substrate Omad, log[aTC] μM 1.72",0.0072 and 0.0051 and 0.0089
same,Slope (velocity of substrate degradation in presence of aTC),"Tet(X6) [4]; substrate Omad, log[aTC] μM 2.16",0.0042 and 0.007 and 0.0037
same,Slope (velocity of substrate degradation in presence of aTC),"Tet(X6) [4]; substrate Tig, log[aTC] μM 0.81",0.0454 and 0.0455 and 0.0453
same,Slope (velocity of substrate degradation in presence of aTC),"Tet(X6) [4]; substrate Tig, log[aTC] μM 1.41",0.0221 and 0.024 and 0.0233
same,Slope (velocity of substrate degradation in presence of aTC),"Tet(X6) [4]; substrate Tig, log[aTC] μM 1.72",0.0213 and 0.0168 and 0.0171
same,Slope (velocity of substrate degradation in presence of aTC),"Tet(X6) [4]; substrate Tig, log[aTC] μM 2.07",0.0168 and 0.0154 and 0.0122
same,Slope (velocity of substrate degradation in presence of aTC),"Tet(X6) [4]; substrate Tig, log[aTC] μM 2.16",0.0135 and 0.0131 and 0.0184
same,degradation observed by optical absorbance,Tet(X6) [5],time-dependent decrease at 440 nm
same,factor by which apparent kcat is lower than for tetracycline antibiotic substrates,Tet(X6) [6]; Tet(X6),≤ 7
same,Slope (initial velocity of substrate degradation),Tet(X6) [6]; [Sub] 1.94805 μM,0.0038 and 0.0045 and 0.003
same,Slope (initial velocity of substrate degradation),Tet(X6) [6]; [Sub] 3.8961 μM,0.0098 and 0.0073 and 0.0072
same,Slope (initial velocity of substrate degradation),Tet(X6) [6]; [Sub] 6.16883 μM,0.0097 and 0.0093 and 0.009
same,Slope (initial velocity of substrate degradation),Tet(X6) [6]; [Sub] 8.11688 μM,0.0054 and 0.0074 and 0.0086
same,Slope (initial velocity of substrate degradation),Tet(X6) [6]; [Sub] 20.1299 μM,0.0109 and 0.0073 and 0.0099
same,Slope (initial velocity of substrate degradation),Tet(X6) [6]; [Sub] 29.8701 μM,0.0108 and 0.0104 and 0.0106
same,"Michaelis-menten nonlinear fit, best-fit Vmax","Tet(X6) [6]; supplementary source data, Tet(X6) 0.4 µM",0.01106
same,ATC concentration inhibiting growth at fixed TET (Fig3a source data),[7]; TET 0,32
same,ATC concentration inhibiting growth at fixed TET (Fig3a source data),[7]; TET 1,32
same,ATC concentration inhibiting growth at fixed TET (Fig3a source data),[7]; TET 2,32
same,ATC concentration inhibiting growth at fixed TET (Fig3a source data),[7]; TET 4,32
same,ATC concentration inhibiting growth at fixed TET (Fig3a source data),[7]; TET 8,32
same,ATC concentration inhibiting growth at fixed TET (Fig3a source data),[7]; TET 16,16
same,ATC concentration inhibiting growth at fixed TET (Fig3a source data),[7]; TET 32,16
same,ATC concentration inhibiting growth at fixed TET (Fig3a source data),[7]; TET 64,16
same,ATC concentration inhibiting growth at fixed TET (Fig3a source data),[7]; TET 128,8
same,ATC concentration inhibiting growth at fixed TET (Fig3a source data),[7]; TET 256,0
same,MIC,[8],4 mg/L
same,MIC,[9],32 mg/L
same,MIC,[10],8 mg/L
